Values of other authors, collected in patent US20220071932A1, “Compositions and Methods Against Stress-Induced Affective Disorders and Their Associated Symptoms” (The Trustees of Columbia University in the City of New York, priority 2019, published 2022).

System: depressive symptoms in patients
Details: patients diagnosed with MDD; cited from earlier work

CC12CC3CC(C)(C1)CC(N)(C3)C2 [memantine]
reduction of depressive symptoms: does not reduce depressive symptoms
